Where two headings read alike, the source gives them in different places.
Tests used:
[1] = target: human GPIIb/IIIa receptor (Homo sapiens (Human), UniProt P05106+P08514); assay: Affinity assay: displacement of tritiated reference compound from immobilized purified GPIIb/IIIa; type: binding
Description: Affinity assay: In the first step human GPIIb/IIIa purified from human platelets was immobilized on a 96-well solid plate. After 48 hours the plates were washed and the unspecific binding sites were blocked with Roti®-Block. 2. In the next step, the plates were simultaneously incubated with a tritium labeled known GPIIb/IIIa binder (^3H) mixed with increasing concentrations of the novel small molecule compounds (inhibitor, ^19F). The higher the affinity of the inhibitor, the lower the bound fraction of the tritiated known GPIIb/IIIa binder (^3H) was. The fraction of tritiated compound (^3H), which is not displaced by inhibitor, was measured in a microplate scintillation counter.
Purified human glycoprotein IIb/IIIa (20 mM Tris-HCl, 0.1 M NaCl, 0.1% Triton X-100, 1 mM CaCl2, 0.05% NaN3, 50% Glycerol, pH 7.4) was purchased from Enzyme Research Laboratories Inc. (South Bend, Ind.). The GPIIb/IIIa receptor was diluted in phosphate-buffered saline (Dulbecco's Phosphate Buffered Saline (D-PBS(+)) with calcium and magnesium, GIBCO®, Invitrogen) with 0.01% bovine serum albumin (albumin from bovine serum—lyophilized powder, ≧96%, Sigma).
The GPIIb/IIIa receptor was immobilized 48 hours at least (100 μL per well, 48 to maximum 96 hours) on a 96-well solid plate (Immuno Plate MaxiSorp™, Nunc, Roskilde, Denmark) at 277 K to 280 K and at a concentration of 0.1 μg per well to 1 μg per well. As negative control one row of the plate (n=8) was incubated just with 2% bovine serum albumin (200 μper well, albumin from bovine serum—lyophilized powder, […], Sigma, diluted in D-PBS(+)). After washing three times with the wash buffer (230 μL per well, Dulbecco's Phosphate Buffered Saline (D-PBS (−)) contains no calcium or magnesium, GIBCO®, Invitrogen) residual exposed plastic and unspecific binding sites were blocked by incubating the plate with a special blocking solution (200 μL per well, Roti®-Block, Carl Roth GmbH Co KG, Karlsruhe) containing 2% bovine serum albumin (Albumin from bovine serum—lyophilized powder, ≧96%, Sigma) 1 hour at room temperature.
After washing three times with the wash buffer 50 μL of tritiated reference compound (60 nM, ^3H-labeled compound) and 50 μL of novel compound (inhibitor, ^19F) were simultaneously added to each well and incubated for 1 hour at room temperature. Several concentrations of each novel inhibitor (0.1, 1, 2, 5, 10, 20 50, 100, 200, 500, 1000, 2000, 5000, 10000 and 20000 nM) were investigated. At each concentration of inhibitor a fourfold determination was performed.
The maximum value of tritiated reference compound was determined without addition of inhibitor (n=8). To exclude unspecific binding of ^3H-reference compound wells without glycoprotein receptors were used as negative controls (n=12, identically treated just without GP IIb/IIIa receptors).
After one hour the plate was washed three times with phosphate-buffered saline (200 μL per well, Dulbecco's Phosphate Buffered Saline (D-PBS(+)), GIBCO®, Invitrogen). Following 140 μL of liquid scintillation cocktail (MicroScint™ 40 aqueous, Perkin Elmer) was added to each well. After 15 min at room temperature the plates were measured at the microplate scintillation counter (TopCount NXT v2.13, Perkin Elmer, Packard Instrument Company).
In the first step human glycoprotein IIb/IIIa, which is purified from human platelets, was immobilized on a 96-well solid plate. After 48 hours at least the plates were washed and the unspecific binding sites were blocked with Roti®-Block. In the next step, the plates were simultaneously incubated with a tritium labeled reference compound and the novel small molecule compound (inhibitor). The higher the affinity of the inhibitor, the smaller is the bound fraction of reference compound. The fraction of tritiated reference compound, which is not displaced by inhibitor, was measured at a microplate scintillation counter.

[2] = Plasma protein binding by equilibrium dialysis, monkey plasma; type: in vitro ADME; conditions: plasma (10% in buffer), Cynomolgus, read-out: Fu (Mari)
Description: (§1) The determination of the plasma protein binding of compounds was performed by means of an equilibrium dialysis in a 96-well HT plate. Solutions of test compound (0.3 μM and 3 μM) were prepared in buffer (50 mM phosphate buffer) and 10% plasma. A 96 well HT dialysis plate (Teflon) was assembled so that each well was divided in two compartments by a semi-permeable cellulose membrane (regenerated Cellulose, MWCO 12-14K). The phosphate buffer solution (150 μL) was added to one side of the membrane and the plasma solution to the other side (150 μL). The compounds were added to the plasma solution side and were incubated at 37 degree. The unbound fraction of the compound could pass through the membrane and equilibrium between the two sides could be reached (6-8 h, 37° C.). Both solutions were analyzed for each compound (plasma-free and plasma-containing) by LC-MS. Both solutions for each compound were diluted with buffer or plasma to reach the same matrix (10% plasma) for analysis and were precipitated by the addition of methanol. The fraction unbound (Fu) was calculated as the quotient of the equilibrium concentrations of the compound in plasma-free and plasma-containing solution.

[3] = Plasma protein binding by equilibrium dialysis, human plasma; type: in vitro ADME; conditions: plasma (10% in buffer), Caucasian, read-out: Fu (Mari)
Description: as §1

human thrombi = assay: Ex vivo blood flow model: binding to human thrombi, incl. competition with cold compound; conditions: ± SEM; for in vitro clot-to-blood ratio / Accumulation Thrombus: 3 minutes post-injection of 18F-labeled compound; for Accumulation Thrombus: without cold compound; for Thrombus competition: cold compound added with hot compound, final plasma concentration 2.8 μM, 3 minutes
From the text: The binding of compounds to thrombi was further investigated in an ex vivo blood flow model similar to that described in “Wakhloo, A. K. et al. Thrombus and stroke 2008, in vitro models 57-66” but modified with regard to thrombus development. Briefly, an open handmade tube-set consisting of tygon-tubes (Tygon R-1000, part N^O AAU00007: I.D. 3.2 mm, O.D. 6.4 mm, Saint Gobain Performance Plastics North America), intermediate tubes (Intrafix® Infusion set, B. Braun, Melsungen, Germany) an open reservoir (10 mL Combitip, Eppendorf) and a chamber made of a piece of polyethylene-Tube, ([…] Polyethylene Tubing, Clay Adams, PE160, length: 6.5 cm) containing a loop of a roughened thread (fishing line: Okuma UltraMax whitefish, diameter: 0.14 mm, length: 5 cm; sandpaper: CAMI Grit designation: 600, CP918a, VSM) was used for thrombus formation. The connection between the intermediate tube and the thrombus chamber was made by trimmed tips (epTIPS, 200 μL, Eppendorff, Hamburg/Germany). The Reservoir and the thrombus chamber were fixed by clamps and stands. A peristaltic-pump (Minipuls 3, Gilson, Middelton/USA) was used to pump the blood around thereby adjusting the flow in the middle of the thrombus chamber to 70-90 cm per second, which was monitored by ultrasound Doppler measurement (Vevo 770 High-Resolution In Vivo Micro-Imaging System, VisualSonics, TorontoOntario, Canada; Scanhead: RMV 704, 40 MHz). The volume of the entire tube-set was 7.5 or 15 mL.
For each experiment fresh blood was taken from a volunteer using 10 mL citrate-tubes (Sarstedt S-Monovette 02.1067.001, 10 mL, Citrate 3.13%) and immediately laid into the turning-device of an incubator at a temperature of 37° C. (Heraeus miniTherm CTT with integrated rotation- and turning device, turning speed: 19 rotations per minute, Heraeus Instruments GmbH, Hanau/Germany). As needed, two tubes were taken out of the turning-device and 15 mL were transferred to a 20 mL Syringe (Omnifix®, B. Braun, Melsungen/Germany) and gently mixed with 0.75 mL CaCl2-Solution before the peristaltic pump was started and the whole content of the syringe was transferred into the reservoir of the tube-set via a cell strainer (BD Falcon™ cell strain, 40 μm, BD, Franklin Lakes, N.J. USA). After 7 minutes 1 MBq or 0.5 MBq (15 mL or 7.5 mL) of the compound was added to the reservoir by means of a pipette, thereby mixing the content gently with the tip of the pipette. The blood was left circulating for another 3 minutes. Then, the pump was stopped, aliquots were taken from the blood and the thrombus together with the roughened thread was removed from the thrombus-chamber before both was weighted and measured in a gamma counter (Automatic Gamma Counter Wizard^2 3, Perkin Elmer). Then the thrombus together with the thread was incubated in Plasmin-solution (Plasmin from Human Plasma, Sigma Aldrich, stock-solution: 500 μg in 500 μL 150 μM Tris-buffer (pH 7.8), 20 μL stock-solution to 230 μL saline solution 0.9%) for 48 hours to separate the platelets from the thread and to determine the netto weight of the thrombus. Finally the activity of the compound in blood and thrombus as well as the ratio between both was determined (cpm/weight [mg]).
To verify the specificity of the compound, a competition experiment was conducted in which the cold compound was added to the reservoir together with the hot compound. The final plasma concentration of the cold compound was 2.8 μM.

[4] = Pharmacokinetics / biodistribution in mice; type: in vivo; conditions: nude mice
Description: The biodistribution of the compound described in example 41 was determined in nude mice. Briefly, the mice received 185 KBq of the compound each. At different time points ([…], 3 mice per group) the animals were sacrificed and the organs of interest or aliquots thereof were removed, weighted and finally measured in a gamma counter (Automatic Gamma Counter Wizard^2 3, Perkin Elmer).

Chain of human GPIIb/IIIa receptor (P08514 32-887): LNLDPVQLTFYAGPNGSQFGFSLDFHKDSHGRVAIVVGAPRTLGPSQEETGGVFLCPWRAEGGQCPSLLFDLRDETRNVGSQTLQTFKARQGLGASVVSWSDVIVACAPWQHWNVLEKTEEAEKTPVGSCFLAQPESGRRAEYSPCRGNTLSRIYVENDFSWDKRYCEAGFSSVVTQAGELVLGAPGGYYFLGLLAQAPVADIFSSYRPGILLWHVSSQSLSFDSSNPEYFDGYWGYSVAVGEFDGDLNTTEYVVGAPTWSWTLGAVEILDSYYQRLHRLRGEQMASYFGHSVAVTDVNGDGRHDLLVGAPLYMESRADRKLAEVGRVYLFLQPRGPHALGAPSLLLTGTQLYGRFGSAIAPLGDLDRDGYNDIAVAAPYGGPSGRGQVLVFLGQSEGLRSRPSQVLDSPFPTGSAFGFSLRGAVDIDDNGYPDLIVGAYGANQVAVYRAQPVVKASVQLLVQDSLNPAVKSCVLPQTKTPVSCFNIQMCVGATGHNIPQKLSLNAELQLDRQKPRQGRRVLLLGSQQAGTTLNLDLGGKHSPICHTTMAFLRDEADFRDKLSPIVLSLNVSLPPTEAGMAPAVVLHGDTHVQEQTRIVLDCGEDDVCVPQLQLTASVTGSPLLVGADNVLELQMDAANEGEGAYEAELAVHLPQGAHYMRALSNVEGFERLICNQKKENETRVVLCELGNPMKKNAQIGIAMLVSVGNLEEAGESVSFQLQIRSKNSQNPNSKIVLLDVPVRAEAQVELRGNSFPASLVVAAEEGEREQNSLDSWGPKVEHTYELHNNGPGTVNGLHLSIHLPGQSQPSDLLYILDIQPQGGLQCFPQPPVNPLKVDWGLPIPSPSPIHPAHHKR
Chain of human GPIIb/IIIa receptor (P08514 891-1039 partner): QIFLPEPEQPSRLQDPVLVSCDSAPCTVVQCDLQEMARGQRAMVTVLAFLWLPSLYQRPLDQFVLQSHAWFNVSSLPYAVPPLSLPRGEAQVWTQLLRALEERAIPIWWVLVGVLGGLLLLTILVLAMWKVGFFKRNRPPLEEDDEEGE
Chain of human GPIIb/IIIa receptor (P05106 27-788): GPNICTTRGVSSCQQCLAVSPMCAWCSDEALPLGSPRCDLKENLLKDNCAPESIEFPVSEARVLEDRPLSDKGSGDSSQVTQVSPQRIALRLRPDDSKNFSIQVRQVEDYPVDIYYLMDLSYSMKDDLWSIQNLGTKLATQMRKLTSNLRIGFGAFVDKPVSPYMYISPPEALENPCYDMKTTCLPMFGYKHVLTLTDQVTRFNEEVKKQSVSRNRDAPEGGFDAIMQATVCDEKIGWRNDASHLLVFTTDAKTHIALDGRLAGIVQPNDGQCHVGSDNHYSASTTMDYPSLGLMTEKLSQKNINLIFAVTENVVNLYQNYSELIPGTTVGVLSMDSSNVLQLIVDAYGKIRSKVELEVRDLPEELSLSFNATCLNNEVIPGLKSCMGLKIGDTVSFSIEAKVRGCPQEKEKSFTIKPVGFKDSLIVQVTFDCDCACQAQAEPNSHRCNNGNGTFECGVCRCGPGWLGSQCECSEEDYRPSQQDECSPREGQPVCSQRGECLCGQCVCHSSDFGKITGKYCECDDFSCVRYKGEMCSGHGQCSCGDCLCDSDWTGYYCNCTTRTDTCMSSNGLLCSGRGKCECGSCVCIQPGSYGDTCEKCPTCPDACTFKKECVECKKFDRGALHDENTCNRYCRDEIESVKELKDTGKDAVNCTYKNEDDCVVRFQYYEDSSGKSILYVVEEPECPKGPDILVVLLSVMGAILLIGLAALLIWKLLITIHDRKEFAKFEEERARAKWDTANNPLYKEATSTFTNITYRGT

Row | SMILES | in vitro clot-to-blood ratio (human thrombi) | Accumulation Thrombus (human thrombi) | Thrombus competition (human thrombi) | further results
1 | O=C(O)C[C@H](NC(=O)[C@@H]1CCCN(C(=O)CCC2CCNCC2)C1)c1cncc(-c2ccc(OCCF)cc2)c1 [Example 7, (3S)-3-{5-[4-(2-Fluoroethoxy)phenyl]pyridin-3-yl}-3-[({(3R)-1-[3-(piperidin-4-yl)propanoyl]piperidin-3-yl}carbonyl)amino]propanoic acid] |  |  |  | IC50 ([1]; 19F compounds vs 60 nM 3H-labeled reference compound, 1 hour at room temperature, read-out: IC50 human): 11 nM; IC50 ([1]; values repeated beside the 18F-compound, read-out: IC50 human (corresponding 19F-compound, Table 2)): 11 nM; fraction unbound at 0.3 μM ([2]; 0.3 μM): 0.54; fraction unbound at 3 μM ([2]; 3 μM): 0.58; fraction unbound at 0.3 μM ([3]; 0.3 μM): 0.5; fraction unbound at 3 μM ([3]; 3 μM): 0.54
2 | O=C(O)C[C@H](NC(=O)[C@@H]1CCCN(C(=O)CCC2CCNCC2)C1)c1cccc(OCC[18F])c1 [Example 38, (3S)-3-[3-(2-[^18F]Fluoroethoxy)phenyl]-3-[({(3R)-1-[3-(piperidin-4-yl)propanoyl]piperidin-3-yl}carbonyl)amino]propanoic acid] | 19 ± 1 (n = 9) | 41 ± 3 (n = 5) 10^3 cpm/mg | 10 ± 1 (n = 5) 10^3 cpm/mg | 
3 | O=C(O)C[C@H](NC(=O)[C@@H]1CCCN(C(=O)CCC2CCNCC2)C1)c1ccc(OCC[18F])cc1 [Example 39, (3S)-3-[4-(2-[^18F]Fluoroethoxy)phenyl]-3-[({(3R)-1-[3-(piperidin-4-yl)propanoyl]piperidin-3-yl}carbonyl)amino]propanoic acid] | 34 ± 4 (n = 4) | 86 ± 9 (n = 6) 10^3 cpm/mg | 12 ± 1 (n = 6) 10^3 cpm/mg | 
4 | O=C(O)C[C@H](NC(=O)[C@@H]1CCCN(C(=O)CCC2CCNCC2)C1)c1cncc(-c2ccc(OCC[18F])cc2)c1 [Example 41, (3S)-3-{5-[4-(2-[^18F]Fluoroethoxy)phenyl]pyridin-3-yl}-3-[({(3R)-1-[3-(piperidin-4-yl)propanoyl]piperidin-3-yl}carbonyl)amino]propanoic acid] | 83 ± 14 (n = 6) | 44 ± 7 (n = 6) 10^3 cpm/mg | 5 ± 1 (n = 5) 10^3 cpm/mg | enhancement in the vessel-wall [4]: no enhancement in the vessel-wall; excretion [4]: quickly excreted over the kidney and liver; elimination from the blood ([4]; 185 KBq, 1-120 minutes p.i.): rapidly eliminated from the blood; background in the rest of the body ([4]; after 15 minutes p.i.): almost no background in the whole rest of the body
5 | N#Cc1cc(-c2cncc([C@H](CC(=O)O)NC(=O)[C@@H]3CCCN(C(=O)CCC4CCNCC4)C3)c2)ccc1[18F] [Example 42, (3S)-3-[5-(3-Cyano-4-[^18F]fluorophenyl)pyridin-3-yl]-3-[({(3R)-1-[3-(piperidin-4-yl)propanoyl]piperidin-3-yl}carbonyl)amino]propanoic acid] | 58 ± 10 (n = 6) | 39 ± 5 (n = 6) 10^3 cpm/mg | 5 ± 1 (n = 6) 10^3 cpm/mg | 
6 | O=C(O)C[C@H](NC(=O)[C@@H]1CCCN(C(=O)CCC2CCNCC2)C1)c1cncc(CCc2ccc(OCC[18F])cc2)c1 [Example 46, (3S)-3-(5-{2-[4-(2-[^18F]Fluoroethoxy)phenyl]ethyl}pyridin-3-yl)-3-[({(3R)-1-[3-(piperidin-4-yl)propanoyl]piperidin-3-yl}carbonyl)amino]propanoic acid] | 191 ± 30 (n = 4) | 285 ± 76 (n = 4) 10^3 cpm/mg | 17 ± 1 (n = 4) 10^3 cpm/mg | 
7 | O=C(O)C[C@H](NC(=O)[C@@H]1CCCN(C(=O)CCC2CCNCC2)C1)c1cncc(CCc2cccc(OCC[18F])c2)c1 [Example 47, (3S)-3-(5-{2-[3-(2-[^18F]Fluoroethoxy)phenyl]ethyl}pyridin-3-yl)-3-[({(3R)-1-[3-(piperidin-4-yl)propanoyl]piperidin-3-yl}carbonyl)amino]propanoic acid] | 178 ± 48 (n = 4) | 258 ± 59 (n = 4) 10^3 cpm/mg | 14 ± 2 (n = 3) 10^3 cpm/mg | 
